Data: PubChem BioAssay (NCI)
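Five concentrations, 48 hours, 96-well plates. TGI: total growth inhibition.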

Legend:
Test in all cases: NCI tumour cell line growth inhibition, 48 h
OVCAR-5 ovarian = tested on: OVCAR-5 ovarian
NCI-H522 lung = tested on: NCI-H522 lung
COLO 205 colon = tested on: COLO 205 colon
NCI-H226 lung = tested on: NCI-H226 lung
SF-295 CNS = tested on: SF-295 CNS
SF-539 CNS = tested on: SF-539 CNS
SN12C renal = tested on: SN12C renal
BT-549 breast = tested on: BT-549 breast
TK-10 renal = tested on: TK-10 renal
OVCAR-4 ovarian = tested on: OVCAR-4 ovarian
K-562 leukemia = tested on: K-562 leukemia
M14 melanoma = tested on: M14 melanoma
PC-3 prostate = tested on: PC-3 prostate
SW-620 colon = tested on: SW-620 colon
DU-145 prostate = tested on: DU-145 prostate
SK-MEL-5 melanoma = tested on: SK-MEL-5 melanoma
SF-268 CNS = tested on: SF-268 CNS
UO-31 renal = tested on: UO-31 renal
SNB-19 CNS = tested on: SNB-19 CNS
KM12 colon = tested on: KM12 colon
U251 CNS = tested on: U251 CNS
HS 578T breast = tested on: HS 578T breast
HL-60(TB) leukemia = tested on: HL-60(TB) leukemia
IGROV1 ovarian = tested on: IGROV1 ovarian
RPMI-8226 leukemia = tested on: RPMI-8226 leukemia
T-47D breast = tested on: T-47D breast
MDA-MB-435 = tested on: MDA-MB-435
HOP-92 NSCLC = tested on: HOP-92 NSCLC
MDA-N = tested on: MDA-N
UACC-62 melanoma = tested on: UACC-62 melanoma
NCI-H23 lung = tested on: NCI-H23 lung
A549 NSCLC = tested on: A549 NSCLC
HCC-2998 colon = tested on: HCC-2998 colon
NCI/ADR-RES ovarian = tested on: NCI/ADR-RES ovarian
HT29 colon = tested on: HT29 colon
NCI-H460 lung = tested on: NCI-H460 lung
MALME-3M melanoma = tested on: MALME-3M melanoma
SK-MEL-28 melanoma = tested on: SK-MEL-28 melanoma
EKVX NSCLC = tested on: EKVX NSCLC
SR leukemia = tested on: SR leukemia
HCT-15 colon = tested on: HCT-15 colon
OVCAR-8 ovarian = tested on: OVCAR-8 ovarian
ACHN renal = tested on: ACHN renal
MOLT-4 leukemia = tested on: MOLT-4 leukemia
786-0 renal = tested on: 786-0 renal
MCF7 breast = tested on: MCF7 breast
SNB-75 CNS = tested on: SNB-75 CNS
CCRF-CEM leukemia = tested on: CCRF-CEM leukemia
UACC-257 melanoma = tested on: UACC-257 melanoma
CAKI-1 renal = tested on: CAKI-1 renal
HCT-116 colon = tested on: HCT-116 colon
HOP-62 NSCLC = tested on: HOP-62 NSCLC
OVCAR-3 ovarian = tested on: OVCAR-3 ovarian
SK-OV-3 ovarian = tested on: SK-OV-3 ovarian
MDA-MB-231 breast = tested on: MDA-MB-231 breast
LOX IMVI melanoma = tested on: LOX IMVI melanoma
A498 renal = tested on: A498 renal
SK-MEL-2 melanoma = tested on: SK-MEL-2 melanoma
RXF 393 renal = tested on: RXF 393 renal

Measured: TGI

O=c1c(-c2ccc(O)cc2)coc2cc(O)cc(O)c12
not listed: SNB-75 CNS | CCRF-CEM leukemia | UACC-257 melanoma | CAKI-1 renal | HCT-116 colon | HOP-62 NSCLC | OVCAR-3 ovarian | SK-OV-3 ovarian | MDA-MB-231 breast | LOX IMVI melanoma | A498 renal | SK-MEL-2 melanoma | RXF 393 renal
> 100 µM: all other assays above

C=C1C(=O)O[C@H]2[C@H]([C@H](C)CCCC(C)=O)O[C@H]([C@@]3(C)CCC(=O)O3)C[C@@H]12
83.5 µM: CCRF-CEM leukemia
9.34 µM: SF-268 CNS
64.4 µM: LOX IMVI melanoma
54.3 µM: CAKI-1 renal | MALME-3M melanoma
64.8 µM: NCI-H522 lung
85.5 µM: HCT-116 colon
52.3 µM: TK-10 renal
80.5 µM: NCI-H226 lung
not listed: MCF7 breast | RXF 393 renal
> 100 µM: all other assays above

COC(=O)C(C(=O)OC)C1CC(=O)c2c(Br)sc(Br)c21 (centres undefined)
35 µM: HOP-92 NSCLC
28.9 µM: OVCAR-5 ovarian
40.4 µM: NCI-H460 lung
18.7 µM: MOLT-4 leukemia
40 µM: MALME-3M melanoma
85.7 µM: HS 578T breast
27.4 µM: HCC-2998 colon | SK-MEL-2 melanoma
40.9 µM: MDA-MB-435
52.8 µM: SF-268 CNS
32.4 µM: SN12C renal | EKVX NSCLC
35.7 µM: BT-549 breast
42.6 µM: SF-539 CNS
76.8 µM: UACC-257 melanoma
29 µM: PC-3 prostate
53.4 µM: NCI-H226 lung
68.8 µM: A549 NSCLC
73.2 µM: MCF7 breast
29.6 µM: UACC-62 melanoma
15.4 µM: CCRF-CEM leukemia
37.1 µM: NCI/ADR-RES ovarian
34.8 µM: DU-145 prostate
34.6 µM: SR leukemia
34.2 µM: SK-MEL-28 melanoma
44 µM: SK-OV-3 ovarian
28.3 µM: SK-MEL-5 melanoma
29.5 µM: UO-31 renal
26.4 µM: SW-620 colon | RPMI-8226 leukemia
25.4 µM: NCI-H23 lung
40.8 µM: M14 melanoma
53.5 µM: K-562 leukemia
32.9 µM: HT29 colon
17.5 µM: OVCAR-3 ovarian
26.3 µM: OVCAR-4 ovarian
46.3 µM: HOP-62 NSCLC
47.3 µM: SNB-19 CNS
28.5 µM: COLO 205 colon
29.3 µM: IGROV1 ovarian
60.9 µM: SF-295 CNS
75 µM: SNB-75 CNS
29.8 µM: U251 CNS
26.6 µM: ACHN renal
86.7 µM: TK-10 renal
37.8 µM: OVCAR-8 ovarian
21.1 µM: CAKI-1 renal
84.4 µM: RXF 393 renal
30.9 µM: HCT-116 colon
21.6 µM: HCT-15 colon
49.9 µM: HL-60(TB) leukemia
26.7 µM: LOX IMVI melanoma
not listed: NCI-H522 lung | MDA-MB-231 breast
> 100 µM: all other assays above

O=C(NCc1ccccc1)c1c(O)c2ccccc2[nH]c1=O
not listed: M14 melanoma | T-47D breast | UACC-62 melanoma | SK-OV-3 ovarian | SK-MEL-2 melanoma
> 100 µM: all other assays above
